What all share (assay type): physicochemical
Series [1] is described as follows: Solubility tests for trimellitic anhydride in 2-ethyl hexanol. Here is the method:
Tri octyl trimellitate (TOTM) is one of the most commonly used non-phthalate based plasticizers. Tri octyl trimellitate is produced via esterification reaction between trimellitic anhydride (TMA) and 2-ethyl hexanol (2-EH). According to embodiments of the invention, trimellitic anhydride may be dissolved in 2-ethyl hexanol before it is transferred to an esterification reactor. Thus, the solubility of trimellitic anhydride in 2-ethyl hexanol was tested under various molar ratios of trimellitic anhydride to 2-ethyl hexanol. In this experiment, a hundred grams of trimellitic anhydride was initially added to 2-ethyl hexanol at a molar ratio of 1:1 to form a mixture. The temperature of the mixture was controlled in a range of 110° C. to 150 ° C. Additional 2-ethyl hexanol was gradually added to the mixture to change the molar ratio of trimellitic anhydride to 2-ethyl hexanol until complete dissolution of trimellitic anhydride in 2-ethyl hexanol was observed. The amount of added 2-ethyl hexanol was recorded to obtain a molar ratio needed for the complete dissolution of trimellitic anhydride.

Series [2] is described as follows: Repeated solubility test for trimellitic anhydride in 2-ethyl hexanol. How it is done:
The temperature range for complete dissolution of trimellitic anhydride was further repeated by varying the temperature in a range of 110° C. to 149° C. when the molar ratio of trimellitic anhydride to 2-ethyl hexanol was kept at 1:3.25. About 100 g of trimellitic anhydride was used. When a complete dissolution of trimellitic anhydride was observed, the amount of water formed during the dissolution and total time consumed for dissolution are recorded.

A short description of series [3]: Solubility tests for trimellitic anhydride in 2-ethyl hexanol. This is another data set of the same source.

On to `O=C(O)c1ccc2c(c1)C(=O)OC2=O` [trimellitic anhydride], for which the Dissolution result in series [1] (TMA:2-EH molar ratio 1:1, 110-150 °C) is given as “No”; in series [1] (TMA:2-EH molar ratio 1:2, 110-150 °C), “No”; in series [1] (TMA:2-EH molar ratio 1:2.5, 110-150 °C), “No”; in series [1] (TMA:2-EH molar ratio 1:3, 110-150 °C), “No”; in series [1] (TMA:2-EH molar ratio 1:3.25, 110-150 °C), “Yes”; in series [2] (in 2-ethyl hexanol, TMA:2-EH molar ratio 1:3.25, 110-149 °C), “Yes”. Besides, the “Time for complete dissolution” value in series [2] (about 149 °C, molar ratio about 1:3.25) was in the range of 20 to 30 min. Moreover, in series [2] (on cooling, molar ratio 1:3.25), the “Temperature at which the mixture becomes milky” value amounted to 60 °C. The “Temperature at which turbidity starts forming in the solution” value in series [2] (on cooling, molar ratio 1:3.25) amounted to 65 °C. The “Temperature at which water formation starts” value in series [3] (TMA:2-EH molar ratio 1:1, no catalyst) was “at 135 °C”; in series [3] (TMA:2-EH molar ratio 1:2, no catalyst) it was “at 135 °C”; in series [3] (TMA:2-EH molar ratio 1:2.5, no catalyst) it was “at 135 °C”; in series [3] (TMA:2-EH molar ratio 1:3, no catalyst) it was “at 135 °C”. In addition, the “Temperature at which water formation started” value in series [3] (at each molar ratio, without catalysts) turned out to be 135 °C.
